The source of these data is PMC4161441, “Unravelling the Multiple Functions of the Architecturally Intricate Streptococcus pneumoniae β-galactosidase, BgaA” (PLoS Pathogens, 2014).

SMILES strings stand for the structures. pKd, pKi: −log10 of the molar value.

In test [1] the target is T1, CBM71-2 (Streptococcus pneumoniae, UniProt Q8DQP4).
T1 construct: gene bgaA; pET28-based expression in E. coli; exact borders not in text
Briefly: UV difference spectroscopy. It counts as binding. Conditions: 25 °C; too weak to quantify.

Test [2] deals with T2, CBM71-1 (Streptococcus pneumoniae, UniProt Q8DQP4).
T2 construct: gene bgaA; pET28-based expression in E. coli; exact borders not in text
Briefly: UV difference spectroscopy. Format: binding. Conditions: 25 °C; too weak to quantify.

The target in test [3] is T1, CBM71-2. Kind of test: isothermal titration calorimetry. It counts as binding. Conditions: PBS, 25 °C.
Test [4] deals with T2, CBM71-1. Kind of test: isothermal titration calorimetry. It counts as binding. Conditions: PBS, 25 °C. For orientation: Isothermal titration calorimetry measures the heat released or taken up as one component is titrated into another.
Test [5] deals with T3, BgaA catalytic region (GH2; SpBgaA) (Streptococcus pneumoniae, UniProt A0A0H2UP19).
T3 construct: N-terminal catalytic region, domains I-V (GH2 region printed as residues 138-993; SpBgaA146-990 in cell assay); pET28-based expression in E. coli; source strain and exact borders not in main text
Kind of test: steady-state kinetics, UV-visible spectrophotometry; apparent Km/Vmax against inhibitor concentration. It counts as biochemical.

Test [6] has as its target T3, BgaA catalytic region (GH2; SpBgaA). Briefly: isothermal titration calorimetry. Format: binding.

T2 sequence (Q8DQP4 entry or part of it): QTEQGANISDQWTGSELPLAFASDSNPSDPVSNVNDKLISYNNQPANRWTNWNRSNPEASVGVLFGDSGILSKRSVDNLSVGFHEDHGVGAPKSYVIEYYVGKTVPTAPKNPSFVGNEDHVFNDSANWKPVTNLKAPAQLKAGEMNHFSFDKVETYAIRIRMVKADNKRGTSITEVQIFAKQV
T1 sequence (Q8DQP4 entry or part of it): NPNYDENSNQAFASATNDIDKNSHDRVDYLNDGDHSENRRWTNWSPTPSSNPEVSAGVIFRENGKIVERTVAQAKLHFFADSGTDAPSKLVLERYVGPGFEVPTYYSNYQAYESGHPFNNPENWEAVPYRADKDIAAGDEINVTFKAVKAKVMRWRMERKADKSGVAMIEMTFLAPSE

For the molecule `OC[C@H]1OC(O)[C@H](O)[C@@H](O)[C@H]1O` (stereo partly drawn) [D-galactose], the UV difference spectroscopy result on CBM71-2 [1] is listed as “For both CBMs, the binding to galactose was too weak to quantify”; at CBM71-1 [2], “only D-galactose gave a signature UV difference spectrum consistent with sugar binding”.
As a reminder, the pKd is the Kd on a negative log10 scale, so that one unit is a factor of ten. Read a low pKd as a high Kd. On to `CC(=O)N[C@H]1C(O)O[C@H](CO)[C@@H](O[C@@H]2O[C@H](CO)[C@H](O)[C@H](O)[C@H]2O)[C@@H]1O` (stereo partly drawn) [LacNAc], for which the negative logarithm of the Kd (pKd) at CBM71-2 [3] was 3.61; on CBM71-1 [4], 3.60.
A word on the pKi: it is the negative decadic logarithm of the Ki, by convention in mol/L. On to `OC[C@H]1CNC[C@@H](O)[C@H]1O` [galactoisofagomine], for which the pKi in test [5] is 7.60. The pKd in test [6] was 7.59.
As for `OC[C@H]1NC(O)[C@H](O)[C@@H](O)[C@H]1O` (stereo partly drawn) [galactonojirimycin], the pKi in test [5] was 4.47.
For `OC[C@H]1O[C@@H](O[C@H]2[C@H](O)[C@@H](O)C(O)O[C@@H]2CO)[C@H](O)[C@@H](O)[C@H]1O` (stereo partly drawn) [lactose], the pKd on CBM71-2 [3] is 3.42; on CBM71-1 [4] it was 3.43.
